The record followed here is patent publication EP4563146A1 (IRBM S.P.A., priority 2023, dated 2025).

SMILES strings stand for the structures. Like-named read-outs stand apart in the source and are kept apart here.

Experiment [1] has as its target T1, West Nile Virus (WNV) NS2B-NS3 protease (West Nile virus, UniProt Q9Q6P4).
T1 construct: NS2B1423-1470); purchased R&D 2907-SE-020
As to the kind of experiment: WNV protease inhibition assay. It counts as biochemical. As to conditions: Table 4; letter codes for IC50. The text has this:
WNV protease inhibition assay

Another experiment concerns ZIKV replicon. As to the kind of experiment: ZIKV replication inhibition assay (NanoLuc replicon in Vero cells). To be noted: 72 h.
Setting [2] is: Zika virus, Vero, read-out: ZIKA Cell_Nanoluc, Vero cells with stable ZIKV replicon, 72 h, Nano-Glo readout.
Setting [3] is: Zika virus, Vero, read-out: ZIKA Cell_Nanoluc.

T1 sequence (Q9Q6P4 1423-1470): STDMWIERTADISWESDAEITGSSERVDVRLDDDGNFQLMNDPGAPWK
T1 sequence (Q9Q6P4 1506-1689): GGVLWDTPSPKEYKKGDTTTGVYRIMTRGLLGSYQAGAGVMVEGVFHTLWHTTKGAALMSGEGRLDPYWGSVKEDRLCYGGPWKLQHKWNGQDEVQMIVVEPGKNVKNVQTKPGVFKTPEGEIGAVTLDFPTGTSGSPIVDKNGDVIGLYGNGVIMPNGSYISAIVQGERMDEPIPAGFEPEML

`Cc1nc(-c2ccc(C[n+]3cc([N-]C(=O)Nc4ccnc(C(F)(F)F)c4)on3)cc2)cs1` [Example 210, (3-(4-(2-Methylthiazol-4-yl)benzyl)-1,2,3-oxadiazol-3-ium-5-yl)((2-(trifluoromethyl)pyridin-4-yl)carbamoyl)amide] returned an IC50 in experiment [1] of 0.1 to 1 µM. In the experiment on ZIKV replicon (setting [2]), the EC50 was in the range of 1 to 20 µM.

As to `CN(C)C[C@H]1CC[C@H]([n+]2cc([N-]C(=O)Nc3cc(NC(=O)C(C)(C)c4ccccc4)cc(C(F)(F)F)c3)on2)CC1` [Example 208, (3-((1R,4R)-4-((Dimethylamino)methyl)-cyclohexyl)-1,2,3-oxadiazol-3-ium-5-yl)((3-(2-methyl-2-phenylpropanamido)-5-(trifluoromethyl)phenyl)carbamoyl)amide], the IC50 in experiment [1] was 0.1 to 1 µM. In the experiment on ZIKV replicon (setting [3]), the EC50 fell in the range of 1 to 20 µM.

In experiment [1], `Cc1ccccc1CC(=O)Nc1cc(NC(=O)[N-]c2c[n+]([C@@H]3CCC[C@H](N(C)C)C3)no2)cc(C(F)(F)F)c1` [Example 202, (3-((1R,3S)-3-(Dimethylamino)cyclohexyl)-1,2,3-oxadiazol-3-ium-5-yl)((3-(2-(o-tolyl)acetamido)-5-(trifluoromethyl)phenyl)-carbamoyl)amide] displayed an IC50 of 0.1 to 1 µM. Further, the EC50 in the experiment with ZIKV replicon (setting [2]) fell in the range of 1 to 20 µM.

Regarding `Cc1cccc(CC(=O)Nc2cc(NC(=O)[N-]c3c[n+]([C@H]4CC[C@H](CN(C)C)CC4)no3)cc(C(F)(F)F)c2)c1C` [Example 212, (3-((1R,4R)-4-((Dimethylamino)methyl)-cyclohexyl)-1,2,3-oxadiazol-3-ium-5-yl)((3-(2-(2,3-dimethylphenyl)acetamido)-5-(trifluoromethyl)phenyl)carbamoyl)amide], the IC50 in experiment [1] lay within 0.1 to 1 µM. Besides, the EC50 in the experiment on ZIKV replicon (setting [3]) lay within 1 to 20 µM.

As to `CN(C)[C@H]1CCC[C@@H]([n+]2cc([N-]C(=O)Nc3ccnc(C(F)(F)F)c3)on2)C1` [Example 204, (3-((1R,3S)-3-(Dimethylamino)cyclohexyl)-1,2,3-oxadiazol-3-ium-5-yl)((2-(trifluoromethyl)-pyridin-4-yl)carbamoyl)amide], the IC50 in experiment [1] lay within 0.1 to 1 µM. The EC50 in the experiment on ZIKV replicon (setting [2]) was 1 to 20 µM.

Compound `COc1ccc(NC(=O)[N-]c2c[n+](Cc3ccc(-c4c(C)ncnc4C)cc3)no2)cc1C(F)(F)F` [Example 249, (3-(4-(4,6-Dimethylpyrimidin-5-yl)benzyl)-1,2,3-oxadiazol-3-ium-5-yl)((4-methoxy-3-(trifluoromethyl)phenyl)carbamoyl)amide] registered an IC50 in experiment [1] of 0.1 to 1 µM. Besides, the EC50 in the experiment with ZIKV replicon (setting [2]) is less than 0.1 µM.

In turn, `CCC(C(=O)Nc1cc(NC(=O)[N-]c2c[n+]([C@H]3CC[C@H](CN(C)C)CC3)no2)cc(C(F)(F)F)c1)c1ccccc1` (stereo partly drawn) [Example 165, (3-((1R,4R)-4-((Dimethylamino)methyl)-cyclohexyl)-1,2,3-oxadiazol-3-ium-5-yl)((3-(2-phenylbutanamido)-5-(trifluoromethyl)phenyl)-carbamoyl)amide] displayed an IC50 in experiment [1] of 0.1 to 1 µM. For the same compound, in the experiment on ZIKV replicon (setting [3]), the EC50 lay in the range of 0.1 to 1 µM.

Consider `Cc1ncnc(C)c1-c1ccc(C[n+]2cc([N-]C(=O)Nc3cccc(C(F)(F)F)c3)on2)nn1` [Example 184, (3-((6-(4,6-Dimethylpyrimidin-5-yl)pyridazin-3-yl)methyl)-1,2,3-oxadiazol-3-ium-5-yl)((3-(trifluoromethyl)phenyl)carbamoyl)amide], for which the IC50 in experiment [1] was in the range of 0.1 to 1 µM. For the same compound, the EC50 in the experiment with ZIKV replicon (setting [2]) lay in the range of 0.1 to 1 µM.

Consider `Cc1nc(-c2ccc(C[n+]3cc([N-]C(=O)Nc4ccnc(C(F)(F)F)c4)on3)cc2)c(C)s1` [Example 259, (3-(4-(2,5-Dimethylthiazol-4-yl)benzyl)-1,2,3-oxadiazol-3-ium-5-yl)((2-(trifluoromethyl)pyridin-4-yl)carbamoyl)amide], for which the IC50 in experiment [1] fell in the range of 0.1 to 1 µM. Besides, in the experiment with ZIKV replicon (setting [2]), the EC50 was less than 0.1 µM.

On to `COc1ccccc1CC(=O)Nc1cc(NC(=O)[N-]c2c[n+](C3CCC(CN(C)C)CC3)no2)cc(C(F)(F)F)c1` [Example 153, (3-((1R,4R)-4-((Dimethylamino)methyl)-cyclohexyl)-1,2,3-oxadiazol-3-ium-5-yl)((3-(2-(2-methoxyphenyl)acetamido)-5-(trifluoromethyl)-phenyl)carbamoyl)amide], for which the IC50 in experiment [1] was in the range of 0.1 to 1 µM. Besides, in the experiment with ZIKV replicon (read-out: ZIKA Cell_Nanoluc, Vero cells with stable ZIKV replicon, Nano-Glo readout), the EC50 fell in the range of 1 to 20 µM.

As for `Cc1ncnc(C)c1-c1ccc(C[n+]2cc([N-]C(=O)Nc3ccnc(C(C)(C)C)c3)on2)cc1` [Example 226, ((2-(tert-Butyl)pyridin-4-yl)carbamoyl)(3-(4-(4,6-dimethylpyrimidin-5-yl)benzyl)-1,2,3-oxadiazol-3-ium-5-yl)amide], the IC50 in experiment [1] is less than 0.1 µM. Moreover, the EC50 with ZIKV replicon (setting [2]) was in the range of 1 to 20 µM.

As for `Cc1cnn(C)c1-c1ccc(C[n+]2cc([N-]C(=O)Nc3ccc(C#N)c(C(F)(F)F)c3)on2)cc1` [Example 238, ((4-Cyano-3-(trifluoromethyl)phenyl)-carbamoyl)(3-(4-(1,4-dimethyl-1H-pyrazol-5-yl)benzyl)-1,2,3-oxadiazol-3-ium-5-yl)amide], the IC50 in experiment [1] lay in the range of 0.1 to 1 µM. For the same compound, in the experiment on ZIKV replicon (setting [2]), the EC50 lay within 1 to 20 µM.

In experiment [1], `Cc1ccccc1CC(=O)Nc1cc(NC(=O)[N-]c2c[n+]([C@H]3CC[C@H](CN(C)C)CC3)no2)cc(C(F)(F)F)c1` [Example 171, (3-((1R,4R)-4-((Dimethylamino)methyl)-cyclohexyl)-1,2,3-oxadiazol-3-ium-5-yl)((3-(2-(o-tolyl)acetamido)-5-(trifluoromethyl)phenyl)-carbamoyl)amide] registered an IC50 of less than 0.1 µM. Also, in the experiment with ZIKV replicon (setting [3]), the EC50 is 0.1 to 1 µM.

Turning to `Cc1ncnc(C)c1-c1ccc(C[n+]2cc([N-]C(=O)N[C@@H]3CC[C@@H](C(F)(F)F)C3)on2)cc1` (racemic) [Example 256, (3-((4-(4,6-Dimethylpyrimidin-5-yl)phenyl)methyl)oxadiazol-3-ium-5-yl)-((rac-(1R,3R)-3-(trifluoromethyl)cyclopentyl)-carbamoyl)azanide], in experiment [1], the IC50 lay within 0.1 to 1 µM. In addition, in the experiment on ZIKV replicon (setting [3]), the EC50 fell in the range of 1 to 20 µM.

`CN(C)C[C@H]1CC[C@H]([n+]2cc([N-]C(=O)Nc3cc(NC(=O)C4Cc5ccccc54)cc(C(F)(F)F)c3)on2)CC1` (stereo partly drawn) [Example 195] yielded an IC50 in experiment [1] of 1 to 20 µM. Further, the EC50 in the experiment on ZIKV replicon (setting [3]) lay within 0.1 to 1 µM.

Compound `CN(C)C[C@H]1CC[C@H]([n+]2cc([N-]C(=O)Nc3cc(NC(=O)Cc4c(F)cccc4F)cc(C(F)(F)F)c3)on2)CC1` [Example 199, ((3-(2-(2,6-Difluorophenyl)acetamido)-5-(trifluoromethyl)phenyl)carbamoyl)(3-((1R,4R)-4-((dimethylamino)methyl)cyclohexyl)-1,2,3-oxadiazol-3-ium-5-yl)amide] displayed an IC50 in experiment [1] of 0.1 to 1 µM. For the same compound, the EC50 in the experiment with ZIKV replicon (setting [3]) was less than 0.1 µM.

`Cc1ccccc1CC(=O)Nc1cc(NC(=O)[N-]c2c[n+]([C@@H]3CCC[C@H](C(=O)N(C)C)C3)no2)cc(C(F)(F)F)c1` [Example 234, (3-((1R,3S)-3-(Dimethylcarbamoyl)cyclohexyl)-1,2,3-oxadiazol-3-ium-5-yl)((3-(2-(o-tolyl)-acetamido)-5-(trifluoromethyl)phenyl)-carbamoyl)amide] registered an IC50 in experiment [1] of 0.1 to 1 µM. Besides, the EC50 in the experiment with ZIKV replicon (setting [2]) was 1 to 20 µM.

In turn, `Cc1ncnc(C)c1-c1ccc(C[n+]2cc([N-]C(=O)Nc3cc(C(F)(F)F)c4ncccc4c3)on2)cc1` [Example 272, (3-(4-(4,6-Dimethylpyrimidin-5-yl)benzyl)-1,2,3-oxadiazol-3-ium-5-yl)((8-(trifluoromethyl)-quinolin-6-yl)carbamoyl)amide] gave an IC50 in experiment [1] of 1 to 20 µM. The EC50 in the experiment with ZIKV replicon (setting [2]) lay within 0.1 to 1 µM.
